From the pKa sets of Baltruschat and Czodrowski (2020)

Details: acidic group

Row | SMILES | pKa
1 | CC(C)(C)OO | 12.8
2 | O=[N+]([O-])/C(=N/O)c1ccc(Cl)cc1 | 6.6
3 | ON=C(c1ccccc1)c1ccccc1 | 11.3
4 | O=c1ccc(O)ccc1[O-] | 10.1
5 | Nc1n[nH]c(N)c1/N=N/c1ccc(O)cc1 | 7.81
6 | COc1ccccc1/C=C\C(=O)O | 4.27
7 | Nc1ccc(O)cc1[O-] | 11.3
8 | C[N+](C)(C)NC(=O)c1ccc([N+](=O)[O-])cc1 | 3.11
9 | Oc1cccc2c1-c1c(O)cccc1-2 | 8.16
10 | C[NH+](C)CC(P(=O)([O-])O)P(=O)([O-])O | 5.75
11 | Cc1cc(O)ccc1[S+](C)C | 7.6
12 | CCCCCCP(=O)(O)CCCCCC | 3.24
13 | CC(=O)c1c(C(=O)O)cccc1[N+](=O)[O-] | 3.26
14 | O=C(O)C1CCCCn2nnnc21 (stereo unspecified) | 3.4
15 | CC(C)=C(C#N)C(=O)O | 3.04
16 | Cc1ccc(Br)cc1C(=O)O | 3.58
17 | CNc1cc[n+](O)cc1 | 3.85
18 | O=C(O)[C@]1(Cl)[C@@H]2CCC[C@@H]21 | 2.82
19 | C/C=C/c1ccc2cccnc2c1O | 11.3
20 | CC(C)Cc1cnc(CC(C)C)c(O)[nH+]1 | 1.7
21 | CC(=O)C1CCCC1=O (stereo unspecified) | 7.82
22 | Cc1ccc(C(=O)O)cc1[N+](=O)[O-] | 3.62
23 | Cc1ccc(O)c(Cc2cc(C)cc([N+](=O)[O-])c2O)c1 | 6.87
24 | S=C(Nc1ccc(Br)cc1)c1ccc(Cl)cc1 | 10.2
25 | CN1c2ccccc2Nc2c(O)cccc21 | 9.26

Row | SMILES | pKa
26 | Cc1ccc(Sc2ccc([N+](=O)[O-])cc2C(=O)O)cc1 | 2.84
27 | CCC(CC)C1(CC)C(=O)[N-]C(=S)NC1=O | 12.4
28 | C[NH+](C)CCCCCNC(=O)/C=N/O | 8.88
29 | COc1ccc2c3c([nH]c2c1)C(C)=NCC3 | 15.3
30 | Cc1cccc(C)c1OCC(=O)O | 3.36
31 | Cc1ccc([N+](=O)[O-])c(C(=O)O)c1 | 2.55
32 | Oc1cccc2ccncc12 | 8.4
33 | [NH3+]CCc1ccc(O)cc1 | 9.42
34 | CCCCCC/C=N/O | 11.6
35 | CCCc1c(-c2ccccc2)nn(-c2ccccc2)c1O | 7
36 | NC(=O)NOCCC([NH3+])C(=O)O (stereo unspecified) | 2.5
37 | O=[N+]([O-])c1cccc(S(=O)O)c1 | 1.21
38 | O=C1[C@H]2CCCC[C@H]2C(=O)N1O | 6
39 | O=C(O)c1ccccc1CO | 3.84
40 | Nc1nc[nH+]c(O)c1N | 3.57
41 | C/C=C/C1=C(O)C(=O)c2ccccc2C1=O | 4.78
42 | CC(C)(/C=C/C(=O)[O-])c1ccccc1O | 10.7
43 | CC1(C)NC(=S)NC1=O | 8.71
44 | Cc1cc(C)c(C)c(C(=O)O)c1C | 3.43
45 | CC(=O)NCCS | 9.5
46 | CC(C)(C)[NH2+]CC(=O)c1ccc(O)cc1 | 7.9
47 | O/C(=C\c1ccccc1)c1ccco1 | 8.5
48 | Cc1nnc(C)n1O | 6.5
49 | Cc1nnn(CC(=O)O)n1 | 2.23
50 | [NH3+]CCCCCCC#CC#CCCC(=O)O | 4.21

Row | SMILES | pKa
51 | Oc1c(Cl)ccc(Cl)c1Cl | 6.12
52 | Nc1nc2c(ncn2[C@@H]2C[C@@H](O)[C@H](CO)O2)c(O)[nH+]1 | -0.97
53 | Cc1cc(C(N)=O)cc(C)[n+]1O | 2.08
54 | COc1cc(C)nc(-n2nc(C)cc2O)n1 | 6.9
55 | CSc1ccc(C(=O)O)cc1 | 4.23
56 | Cc1cc(C)c(C(=O)C(=O)O)c(C)c1 | 1.34
57 | Cc1cc(C(=O)O)ccc1[N+](=O)[O-] | 3.65
58 | O=C1NCc2[nH]cnc2N1 | 11.5
59 | c1ccc(CNc2nnc(-c3ccccc3)s2)cc1 | 11.5
60 | CC(C)c1nnn[nH]1 | 5.55
61 | O=c1cc[nH]cc1 | 11.1
62 | CCC1C(=O)C=C(C)OC1=O (stereo unspecified) | 5.3
63 | CC(C)CCOc1ccccc1/C=C\C(=O)O | 4.38
64 | C=CC#CCC(=O)O | 3.41
65 | O=C(CC(=O)c1ccccc1)Nc1ccc([N+](=O)[O-])cc1 | 8.91
66 | O/N=C/c1cccnc1 | 10.3
67 | Cc1cc(NS(=O)(=O)c2ccc(N)cc2)nc(C)n1 | 7.49
68 | CCOC(=O)c1cc(C)[n+](O)c(C)c1 | -0.13
69 | CN(C)c1cccc(O)c1 | 9.85
70 | C=CCC1(C2C=CCCC2)C(=O)[N-]C(=S)NC1=O (stereo unspecified) | 12.2
71 | O/N=C/c1ccc(O)cc1O | 8.05
72 | Nc1cc[nH+]c2c1ncn2CCOCP(=O)(O)O | 1.11
73 | Nc1ncc2[nH]c(-c3ccccc3)nc2n1 | 9.2
74 | Nc1ccc(-c2ccc(/N=C/c3ccc(O)cc3)cc2)cc1 | 9.5

Same assay, conditions: basic group

Row | SMILES | pKa
75 | CCN(CC)CCCNc1c2ccccc2[nH+]c2ccccc12 | 8.53
76 | N=C1Cc2ccccc2N1 | 8.15
77 | N[C@@H]1CCCC[C@@H]1N | 9.84
78 | NCCSCCN | 9.64
79 | O=C1CN2CCC1CC2 | 7.27
80 | c1ccc(-c2nc3ccccc3s2)cc1 | 0.7
81 | Cc1cc(C)c2ccccc2n1 | 5.11
82 | c1ccc2c(c1)C1CCN2c2ccccc21 | 4.54
83 | CC[C@H]1[C@H](CC2=N/C(=C/c3[nH]c(C[C@@H]4NC(=O)[C@H](CC)[C@H]4C)c(C)c3CCC(=O)[O-])C(CCC(=O)[O-])=C2C)NC(=O)[C@@H]1C | 7.6
84 | Cn1ccc(=O)cc1 | 3.33
85 | O=C1NCCN1 | 3.09
86 | [O-]c1nc2ccccc2[nH]1 | 11.9
87 | c1ncc2c(n1)NCCN2 | 6.63
88 | Nc1n[nH]c(N)c1/N=N/c1ccc(O)cc1 | 3.48
89 | Clc1ccc(CNc2ncnc3[nH]ncc23)cc1 | 3.96
90 | CC(C)n1nnnc1N | 1.91
91 | CCOc1ccc2nc(/C=C/C=C/c3ccccc3)cc(N)c2c1 | 9.5
92 | NCC(F)F | 7.09
93 | [NH3+]CCc1ccccn1 | 3.93
94 | Cc1c(N)ccc2c1-c1c(ccc3ccccc13)C2 | 4.49
95 | Nc1ccc(-c2cnc(-c3ccccc3)o2)cc1 | 3.68
96 | CNC(=N)N(C)C | 13.6
97 | CNCCc1ccc(O)cc1 | 9.36
98 | c1ccc(CNc2nccs2)cc1 | 5.15
99 | CN(CCC[NH3+])CCC[NH3+] | 6.45
100 | Nc1ccncc1N | 9.06

Row | SMILES | pKa
101 | CN(C)/C=N/c1cccc(Br)c1 | 8.08
102 | C/C=C/c1ccc2cccnc2c1O | 4.66
103 | Nc1ccc(C(=O)c2ccc(N)cc2)cc1 | 2.92
104 | N#Cc1cncc2ccccc12 | 2.04
105 | Cc1cccc(C)c1NC(=O)CN1CCCCC1 | 7.6
106 | Cc1cc(C)c(C)c(N)c1C | 4.3
107 | COc1ccc(S(=O)(=O)CCN2CCCCC2)c(OC)c1OC | 7.24
108 | COC(=O)c1ccc(N(C)C)cc1 | 2.61
109 | O=Cc1ccc2ccccc2n1 | 3.1
110 | COc1ccc(Nc2ccccc2)cc1 | 1.38
111 | Cc1cc2c(cc1N)Sc1cc(N(C)C)ccc1N2 | 5.41
112 | CO[C@H]1CC=C2CCN3CC[C@H](CO)/C(=C\CO)[C@]23C1 | 8.42
113 | COc1ccc2c3c([nH]c2c1)C(C)=NCC3 | 9.72
114 | CCOC(=O)CN | 7.74
115 | [O-]/C(=C/c1ccncc1)c1ccccc1 | 7.05
116 | Oc1cccc2ccncc12 | 5.66
117 | OCCN(CCO)c1ccccc1 | 4.11
118 | O=[N+]([O-])c1ccc2[nH]c(-c3ccco3)nc2c1 | 2.64
119 | CCN(CC)Cc1c(C)cccc1O | 8.65
120 | Cc1c2ccncc2cc2c1[nH]c1cc[nH+]cc12 | 5.3
121 | CSc1cnc2ccccc2c1 | 3.88
122 | C[NH+](C)c1ccc(N)cc1 | 3.73
123 | CC1(C)SCNC1C(=O)[O-] (stereo unspecified) | 6.34
124 | c1ccc(-c2cc(-c3ccccc3)c(NCCN3CCOCC3)nn2)cc1 | 6.81
125 | Nc1nc[nH+]c(O)c1N | 1.34
126 | Nc1nnnn1-c1ccc([N+](=O)[O-])cc1 | 0.34

Row | SMILES | pKa
127 | C1CN2CCCN2C1 | 7.95
128 | CN(C)c1ccc(C(O)(c2ccccc2)c2ccc(N(C)C)cc2)cc1 | 6.93
129 | O=C([O-])CN1CCCCC1 | 10.3
130 | Cc1cc2c(cc1N)Sc1cc([NH+](C)C)ccc1N2 | 4.81
131 | CCCCNCCC#N | 8.3
132 | Cc1ccnc(N)n1 | 4.2
133 | Nc1nccc2c1ncn2CCOCP(=O)([O-])[O-] | 7.87
134 | CNc1ccc[n+](O)c1 | -2.42
135 | C#C[C@]1(O)C[C@@H](C)N[C@H]2CCCC[C@@H]21 | 9.29
136 | Nc1ccnc2ccc3ncccc3c12 | 7.3
137 | CCCCN(C)N(C)CCCC | 7.16
138 | CN(C)c1ccc[nH+]c1 | -1.91
139 | CC(C)=NNC1CCN(C)CC1 | 8.9
140 | CC(CO)CN(C)C (stereo unspecified) | 9.75
141 | CNC(=O)NC | 1.02
142 | N/C(=N\O)C(N)Cc1ccccc1 (stereo unspecified) | 7.06
143 | C[C@H]1C[C@@H]2CCC[C@@H]2N1C | 10.1
144 | CN(CC1CO1)CC1CO1 (stereo unspecified) | 6.45
145 | Cc1c[nH+]c([O-])nc1N | 4.69
146 | COC(=O)c1ccc(N)cc1 | 2.44
147 | CNCCc1ccccc1 | 10.2
148 | CCCCCCCCOCCN(C)C | 8.87
149 | CC(=O)OC(C)CN(C)C (stereo unspecified) | 8.31
150 | CCCCCCCCCCCCCN | 10.6
151 | O=[N+]([O-])c1cccc2cnccc12 | 3.46
152 | Cc1n[nH]c(C)c1C | 4.82

Row | SMILES | pKa
153 | CCN(CC)N(C)C | 6.88
154 | NCCc1ccccc1 | 9.89
155 | CC(C)(C)c1ccnc(C(C)(C)C)c1 | 6.7
156 | Nc1ccncc1F | 4.77
157 | Cc1cccc(/N=N/c2ccc(N(C)C)cc2)c1 | 2.33
158 | COc1ccc2c3c1O[C@H]1C(=O)CC[C@H]4[C@@H](C2)N(C)CC[C@]314 | 7.67
159 | Nc1ccc(S(=O)(=O)Nc2cnccn2)cc1 | 1.77
160 | CC(O)CN(Cc1ccccc1)CC(C)O (stereo unspecified) | 7.5
161 | Cc1ccc(Nc2ccccc2)cc1 | 1.16
162 | CC(C)(C)C(=O)n1cnc2ccccc21 | 2
163 | NCCc1ccc(Cl)cc1 | 9.66
164 | CCCCNc1ccnc2cccc([N+](=O)[O-])c12 | 7.18
165 | O=C1CCC[C@H]2[C@H]3C[C@@H](CN12)[C@H]1CCCCN1C3 | 9.2
166 | CNc1ccc(OC)cc1 | 5.93
167 | Cc1ccc([N+](=O)[O-])cc1/C(=N/CCC[NH+](C)C)c1ccccc1 | 3.14
168 | O/N=C/c1cccnc1 | 3.94
169 | Cc1nc(-c2ccccc2)[nH]c1C | 7
170 | C[C@H]1CCCC[C@@H]1N | 10.6
171 | Nc1cc[nH+]c2c1ncn2CCOCP(=O)(O)O | 0.05
172 | Nc1ncc2[nH]c(-c3ccccc3)nc2n1 | 3.98
173 | CCOCCn1c(CN2CCCN(CCCCn3cccn3)CC2)nc2ccccc21 | 9.2
174 | Nc1ccc(-c2ccc(/N=C/c3ccc(O)cc3)cc2)cc1 | 6.86
175 | Brc1cc2cccnc2c2ncccc12 | 4.2
176 | Cc1cc(C)c2cccc(C)c2n1 | 4.48
